In general, IC50 refers to the concentration that gives 50% inhibition.

These results are taken from patent US20250026741A1, “INHIBITORS OF THE ONCOGENIC SHP2 PHOSPHATASE AND USES THEREOF” (Sanford Burnham Prebys Medical Discovery Institute, priority 2021, published 2025).

One assay concerns the target SHP2cat (Homo sapiens (Human), UniProt Q06124). Nature of the assay: Jump dilution inhibition assay. The format is biochemical. Particulars: 10× preincubation 10 min, 10× jump-dilution. The protocol: Finally, we performed a jump-dilution experiment to test for irreversible inhibition of SHP2. #01 was preincubated for 10 min with SHP2cat at 10× inhibitor and protein concentrations, compared to a regular dose-response experiment, followed by a 10×jump-dilution, incubation for an additional 10 min, and addition of the DiFMUP substrate.
#01 was tested for reversibility of inhibition in a jump-dilution experiment using SHP2cat. A regular dose-response experiment (no jump-dilution) was performed in parallel. Working solutions of #01 in DMSO included 10, 3, 1, 0.3, 0.1, 0.03, 0.01, 0 mM for the jump-dilution experiment, and 1, 0.3, 0.1, 0.03, 0.01, 0.003, 0.001, 0 mM for the regular dose-response experiment. […] The enzyme reaction was started by the addition of 5 μL of DiFMUP working solution (100 μM in 50 mM Bis-Tris pH 6.0, 50 mMNaCl, 0.5 mM EDTA, and 0.01% Tween® 20), and fluorescence intensity was measured in kinetic mode (every minute for 10 min) using a Tecan Spark® Multimode Microplate Reader as described above. […] The initial rates were determined from the linear progression curves of the SHP2cat reaction. […] IC50 values were calculated from the corrected initial rates by nonlinear regression using the program GraphPad Prism (GraphPad Software, Inc., San Diego, CA) version 9.

For assay [1], the system named is MOLM-13 AML cells (expressing WT SHP2). Nature of the assay: Cell viability assay (CellTiter-Glo), MOLM-13. It counts as cell-based. Particulars: Homo sapiens, MOLM-13, 72 h, regular MOLM-13 cells, CRISPR comparison experiment. The protocol: Next, we performed an 11-day colony formation assay with TNBC cells treated with #02 or SHP099 at 5, 10, or 20 μM (FIG. 3D).
Finally, we evaluated the selectivity of our top two compounds, #01 and #02, on MOLM-13 AML cells in which SHP2 was depleted using CRISPR-Cas9 knock-out (KO). High-efficiency Cas9-editing MOLM-13 cells were generated by transducingMOLM-13 cells with a Cas9 lentiviral construct. Stable clones were tested for editing efficiency by performing TIDE analysis (45), and these MOLM13-Cas9 cells were transduced with a lentiviral construct containing an AAVS1 single guide RNA (sgRNA) and an mCherry reporter for bulk-sorting of cells with successful AAVS1 editing. […] Cells were treated with inhibitors at various concentrations (ranging from […] to 58 nM) or vehicle control (DMSO) for 72 h, before cell viability was assessed.
Viability of AML, esophageal carcinoma, and TF-1 cells was assessed using the ATP-depletion assay CellTiter-Glo® (Promega). Cells were harvested at 1×10^6/mL to 2×10^6 cells/mL with cell numbers determined by trypan blue using the Countess Cell counter (Thermo Scientific) and resuspended in culture media. […] Luminescence was read on a Tecan Spark® Multimode Microplate Reader and data analyzed using Graph Pad Prism software. […]

Sequence of SHP2cat (Q06124 248-527): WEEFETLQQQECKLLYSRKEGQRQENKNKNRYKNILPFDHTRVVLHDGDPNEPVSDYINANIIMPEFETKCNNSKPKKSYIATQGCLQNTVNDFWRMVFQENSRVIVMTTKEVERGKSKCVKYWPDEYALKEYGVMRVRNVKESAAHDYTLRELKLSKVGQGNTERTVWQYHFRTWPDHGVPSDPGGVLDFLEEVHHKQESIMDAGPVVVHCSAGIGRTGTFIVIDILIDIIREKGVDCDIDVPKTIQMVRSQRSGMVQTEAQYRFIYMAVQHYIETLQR

Consider `Nc1ccc(NC(=O)c2cc(-c3ccc(/C=C4\Sc5ccccc5C4=O)o3)ccc2O)cc1` [#01, (Z)—N-(4-Aminophenyl)-2-hydroxy-5-(5-((3-oxobenzo[b]thiophen-2(3H)-ylidene)methyl)furan-2-yl)benzamide], for which the “reversibility: jump-dilution vs regular dose-response IC50 curves” value on SHP2cat is listed as “IC50 curves were practically identical”.

`O=C(Nc1ccccc1)c1cc(-c2ccc(/C=C3\Sc4ccccc4C3=O)o2)ccc1O` [#02, (Z)-2-hydroxy-5-(5-((3-oxobenzo[b]thiophen-2(3H)-ylidene)methyl)furan-2-yl)-N-phenylbenzamide]: the IC50 in assay [1] is 15 µM.
